In PubChem BioAssay (NCI):
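All cell lines were grown in 96-well plates and treated with compound for 48 hours. Abbreviation: GI50, concentration required for 50% inhibition of growth. TGI denotes the concentration required for complete inhibition of growth.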

Key:
Test in all cases: growth of human tumour cells (NCI), 48 h
[1] = tested on: OVCAR-3 ovarian
[2] = tested on: SR leukemia
[3] = tested on: U251 CNS
[4] = tested on: CAKI-1 renal
[5] = tested on: RXF 393 renal
[6] = tested on: K-562 leukemia
[7] = tested on: NCI-H23 lung
[8] = tested on: UACC-257 melanoma
[9] = tested on: NCI-H226 lung
[10] = tested on: HOP-62 NSCLC
[11] = tested on: DU-145 prostate
[12] = tested on: HS 578T breast
[13] = tested on: OVCAR-5 ovarian
[14] = tested on: SN12C renal
[15] = tested on: SK-MEL-2 melanoma
[16] = tested on: M14 melanoma
[17] = tested on: SK-OV-3 ovarian
[18] = tested on: LOX IMVI melanoma
[19] = tested on: A549 NSCLC
[20] = tested on: SNB-19 CNS
[21] = tested on: MALME-3M melanoma
[22] = tested on: IGROV1 ovarian
[23] = tested on: NCI/ADR-RES ovarian
[24] = tested on: SNB-75 CNS
[25] = tested on: HT29 colon
[26] = tested on: HCT-116 colon
[27] = tested on: SW-620 colon
[28] = tested on: KM12 colon
[29] = tested on: SK-MEL-28 melanoma
[30] = tested on: MCF7 breast
[31] = tested on: OVCAR-4 ovarian
[32] = tested on: SF-268 CNS
[33] = tested on: MOLT-4 leukemia
[34] = tested on: MDA-MB-435
[35] = tested on: SF-539 CNS
[36] = tested on: CCRF-CEM leukemia
[37] = tested on: A498 renal
[38] = tested on: 786-0 renal
[39] = tested on: SF-295 CNS
[40] = tested on: ACHN renal
[41] = tested on: PC-3 prostate
[42] = tested on: MDA-MB-231 breast
[43] = tested on: COLO 205 colon
[44] = tested on: HCC-2998 colon
[45] = tested on: EKVX NSCLC
[46] = tested on: OVCAR-8 ovarian
[47] = tested on: TK-10 renal
[48] = tested on: UO-31 renal
[49] = tested on: HL-60(TB) leukemia
[50] = tested on: RPMI-8226 leukemia
[51] = tested on: BT-549 breast
[52] = tested on: NCI-H460 lung
[53] = tested on: UACC-62 melanoma
[54] = tested on: T-47D breast
[55] = tested on: HOP-92 NSCLC
[56] = tested on: SK-MEL-5 melanoma
[57] = tested on: HCT-15 colon
[58] = tested on: NCI-H522 lung

Compound `CCOC(=O)CCC(NC(=O)c1ccc(Nc2nc3cc(C(F)(F)F)ccc3nc2-c2ccccc2)cc1)C(=O)OCC` (stereo not drawn) has a TGI [1] of over 100 µM, a TGI [2] of over 100 µM and a TGI [3] of over 100 µM. It also gave a TGI [4] of over 100 µM, a TGI [5] of over 100 µM and a TGI [6] of over 100 µM. It also gave a TGI [7] of over 100 µM, a TGI [8] of over 100 µM and a TGI [9] of over 100 µM. The TGI [10] was over 100 µM, the TGI [11] was over 100 µM and the TGI [12] was over 100 µM. The TGI [13] was over 100 µM, the TGI [14] was over 100 µM and the TGI [15] was over 100 µM. For the same compound, the TGI [16] was over 100 µM, the TGI [17] was over 100 µM and the TGI [18] was over 100 µM. It also gave a TGI [19] of over 100 µM, a TGI [20] of over 100 µM and a TGI [21] of over 100 µM. The TGI [22] was over 100 µM, the TGI [23] was over 100 µM and the TGI [24] was over 100 µM. The TGI [25] was over 100 µM, the TGI [26] was over 100 µM and the TGI [27] was over 100 µM. It also gave a TGI [28] of over 100 µM, a TGI [29] of over 100 µM and a TGI [30] of over 100 µM. It also gave a TGI [31] of over 100 µM, a TGI [32] of over 100 µM and a TGI [33] of over 100 µM. It also gave a TGI [34] of over 100 µM, a TGI [35] of over 100 µM and a TGI [36] of over 100 µM. It also gave a TGI [37] of over 100 µM, a TGI [38] of over 100 µM and a TGI [39] of over 100 µM. For the same compound, the TGI [40] was over 100 µM, the TGI [41] was over 100 µM and the TGI [42] was over 100 µM. The TGI [43] was over 100 µM, the TGI [44] was over 100 µM and the TGI [45] was over 100 µM. For the same compound, the TGI [46] was over 100 µM, the TGI [47] was over 100 µM and the TGI [48] was over 100 µM. The TGI [49] was over 100 µM, the TGI [50] was over 100 µM and the TGI [51] was over 100 µM. For the same compound, the TGI [52] was over 100 µM, the TGI [53] was over 100 µM and the TGI [54] was over 100 µM. The TGI [55] was over 100 µM, the TGI [56] was over 100 µM and the TGI [57] was over 100 µM.

In the case of `S=C(N/N=C/c1ccccn1)Nc1ccccn1`, the GI50 [1] is reported as 0.327 µM, the TGI [1] is reported as 3.14 µM and the GI50 [2] is reported as 0.52 µM. It also gave a TGI [2] of over 100 µM, a GI50 [3] of 1.07 µM and a TGI [3] of 24 µM. For the same compound, the GI50 [4] was 1.31 µM, the TGI [4] was over 100 µM and the GI50 [5] was 0.485 µM. The TGI [5] was 4.15 µM, the GI50 [6] was 1.84 µM and the TGI [6] was over 100 µM. It also gave a GI50 [7] of 3.23 µM, a TGI [7] of over 100 µM and a GI50 [8] of 0.903 µM. The TGI [8] was 5.85 µM, the GI50 [9] was 2.08 µM and the TGI [9] was 11.8 µM. The GI50 [10] was 1.73 µM, the TGI [10] was 9.22 µM and the GI50 [58] was 0.241 µM. It also gave a TGI [58] of 0.842 µM, a GI50 [11] of 2.58 µM and a TGI [11] of over 100 µM. The GI50 [12] was 4.8 µM, the TGI [12] was over 100 µM and the GI50 [13] was 3.86 µM. For the same compound, the TGI [13] was over 100 µM, the GI50 [14] was 1.95 µM and the TGI [14] was over 100 µM. It also gave a GI50 [15] of 2.35 µM, a TGI [15] of 9.74 µM and a GI50 [17] of 2.29 µM. It also gave a TGI [17] of over 100 µM, a GI50 [18] of 0.705 µM and a TGI [18] of 23.1 µM. It also gave a GI50 [19] of 2.34 µM, a TGI [19] of 76.6 µM and a GI50 [20] of 2.16 µM. For the same compound, the TGI [20] was over 100 µM, the GI50 [21] was 1.81 µM and the TGI [21] was over 100 µM. The GI50 [22] was 3.17 µM, the TGI [22] was over 100 µM and the GI50 [23] was 1.74 µM. It also gave a TGI [23] of over 100 µM, a GI50 [25] of 3.1 µM and a TGI [25] of over 100 µM. It also gave a GI50 [26] of 0.371 µM, a TGI [26] of over 100 µM and a GI50 [27] of 1.7 µM. The TGI [27] was over 100 µM, the GI50 [28] was 2.87 µM and the TGI [28] was over 100 µM. For the same compound, the GI50 [29] was 2.51 µM, the TGI [29] was over 100 µM and the GI50 [30] was 0.472 µM. For the same compound, the TGI [30] was over 100 µM, the GI50 [31] was 0.477 µM and the TGI [31] was 62.2 µM. For the same compound, the GI50 [32] was 2.29 µM, the TGI [32] was over 100 µM and the GI50 [33] was 0.467 µM. For the same compound, the TGI [33] was over 100 µM, the GI50 [34] was 3.86 µM and the TGI [34] was over 100 µM. The GI50 [35] was 1.81 µM, the TGI [35] was 9.02 µM and the GI50 [36] was 0.358 µM. It also gave a TGI [36] of 17.5 µM, a GI50 [37] of 1.62 µM and a TGI [37] of 33.9 µM. For the same compound, the GI50 [38] was 2.58 µM, the TGI [38] was 36.4 µM and the GI50 [40] was 1.56 µM. For the same compound, the TGI [40] was over 100 µM, the GI50 [41] was 1.46 µM and the TGI [41] was over 100 µM. The GI50 [42] was 0.642 µM, the TGI [42] was over 100 µM and the GI50 [43] was 0.471 µM. It also gave a TGI [43] of over 100 µM, a GI50 [44] of 2.19 µM and a TGI [44] of over 100 µM. For the same compound, the GI50 [46] was 0.671 µM, the TGI [46] was over 100 µM and the GI50 [47] was 2.93 µM. It also gave a TGI [47] of over 100 µM, a GI50 [48] of 1.01 µM and a TGI [48] of over 100 µM. The GI50 [49] was 0.316 µM, the TGI [49] was 1.25 µM and the GI50 [50] was 1.44 µM. The TGI [50] was over 100 µM, the GI50 [51] was 1.99 µM and the TGI [51] was over 100 µM. It also gave a GI50 [52] of 0.962 µM, a TGI [52] of 12.6 µM and a GI50 [54] of 1.93 µM. It also gave a TGI [54] of 90.7 µM, a GI50 [55] of 0.478 µM and a TGI [55] of 6.23 µM. It also gave a GI50 [56] of 0.874 µM, a TGI [56] of 11.3 µM and a GI50 [57] of 0.575 µM. The TGI [57] was over 100 µM.
